According to the NIST ThermoML archive (doi:10.1016/j.fluid.2006.03.015):
Numbers after ± are expanded uncertainties.

Assay: molar heat capacity at constant pressure
Settings: 101.33 kPa, Liquid

CCCC[n+]1ccccc1.O=S(=O)([N-]S(=O)(=O)C(F)(F)F)C(F)(F)F [1-butylpyridinium bis[(trifluoromethyl)sulfonyl]imide]
Settings	molar heat capacity at constant pressure [J/K/mol]
323.18 K, Large sample (1 g) DSC	592 ± 31
328.15 K, modulated-temperature differential scanning calorimetry MDSC	604 ± 30
328.18 K, Large sample (1 g) DSC	595 ± 31
330.15 K, Small sample (50 mg) DSC	587 ± 31
333.13 K, Large sample (1 g) DSC	596 ± 31
333.15 K, modulated-temperature differential scanning calorimetry MDSC	607 ± 30
335.15 K, Small sample (50 mg) DSC	590 ± 31
338.14 K, Large sample (1 g) DSC	600 ± 31
338.15 K, modulated-temperature differential scanning calorimetry MDSC	610 ± 31
340.15 K, Small sample (50 mg) DSC	594 ± 31
343.15 K, modulated-temperature differential scanning calorimetry MDSC	610 ± 31
343.16 K, Large sample (1 g) DSC	603 ± 31
345.15 K, Small sample (50 mg) DSC	596 ± 31
348.12 K, Large sample (1 g) DSC	603 ± 31
348.15 K, modulated-temperature differential scanning calorimetry MDSC	616 ± 31
350.15 K, Small sample (50 mg) DSC	600 ± 31
353.14 K, Large sample (1 g) DSC	604 ± 31
353.15 K, modulated-temperature differential scanning calorimetry MDSC	615 ± 31
355.15 K, Small sample (50 mg) DSC	603 ± 31
358.15 K, Large sample (1 g) DSC	609 ± 32
358.15 K, modulated-temperature differential scanning calorimetry MDSC	621 ± 31
360.15 K, Small sample (50 mg) DSC	605 ± 31
363.15 K, modulated-temperature differential scanning calorimetry MDSC	624 ± 31
363.17 K, Large sample (1 g) DSC	614 ± 32
365.15 K, Small sample (50 mg) DSC	607 ± 32
368.15 K, modulated-temperature differential scanning calorimetry MDSC	623 ± 31
368.17 K, Large sample (1 g) DSC	617 ± 32
370.15 K, Small sample (50 mg) DSC	610 ± 32
373.15 K, modulated-temperature differential scanning calorimetry MDSC	628 ± 31
373.16 K, Large sample (1 g) DSC	617 ± 32
375.15 K, Small sample (50 mg) DSC	613 ± 32
378.13 K, Large sample (1 g) DSC	618 ± 32
378.15 K, modulated-temperature differential scanning calorimetry MDSC	628 ± 31
380.15 K, Small sample (50 mg) DSC	616 ± 32
383.14 K, Large sample (1 g) DSC	621 ± 32
383.15 K, modulated-temperature differential scanning calorimetry MDSC	631 ± 32
385.15 K, Small sample (50 mg) DSC	619 ± 32
388.14 K, Large sample (1 g) DSC	623 ± 32
388.15 K, modulated-temperature differential scanning calorimetry MDSC	635 ± 32
390.15 K, Small sample (50 mg) DSC	622 ± 32
393.14 K, Large sample (1 g) DSC	626 ± 33
393.15 K, modulated-temperature differential scanning calorimetry MDSC	636 ± 32
395.15 K, Small sample (50 mg) DSC	624 ± 32
398.13 K, Large sample (1 g) DSC	630 ± 33
398.15 K, modulated-temperature differential scanning calorimetry MDSC	636 ± 32
400.15 K, Small sample (50 mg) DSC	627 ± 33
403.15 K, modulated-temperature differential scanning calorimetry MDSC	640 ± 32
403.17 K, Large sample (1 g) DSC	631 ± 33
405.15 K, Small sample (50 mg) DSC	630 ± 33
408.14 K, Large sample (1 g) DSC	632 ± 33
408.15 K, modulated-temperature differential scanning calorimetry MDSC	642 ± 32
410.15 K, Small sample (50 mg) DSC	633 ± 33
413.15 K, modulated-temperature differential scanning calorimetry MDSC	644 ± 32
413.16 K, Large sample (1 g) DSC	633 ± 33
415.15 K, Small sample (50 mg) DSC	635 ± 33
418.13 K, Large sample (1 g) DSC	636 ± 33
418.15 K, modulated-temperature differential scanning calorimetry MDSC	645 ± 32
420.15 K, Small sample (50 mg) DSC	639 ± 33
423.15 K, Large sample (1 g) DSC	635 ± 33
425.15 K, Small sample (50 mg) DSC	641 ± 33

CCn1cc[n+](C)c1.O=S(=O)([O-])C(F)(F)F [1-ethyl-3-methylimidazolium trifluoromethanesulfonate]
Settings	molar heat capacity at constant pressure [J/K/mol]
313.13 K, Large sample (1 g) DSC	384 ± 20
315.15 K, Small sample (50 mg) DSC	386 ± 20
318.13 K, Large sample (1 g) DSC	385 ± 20
320.15 K, Small sample (50 mg) DSC	388 ± 20
323.12 K, Large sample (1 g) DSC	386 ± 20
325.15 K, Small sample (50 mg) DSC	390 ± 20
328.15 K, modulated-temperature differential scanning calorimetry MDSC	392 ± 20
328.16 K, Large sample (1 g) DSC	384 ± 20
330.15 K, Small sample (50 mg) DSC	392 ± 20
333.14 K, Large sample (1 g) DSC	383 ± 20
333.15 K, modulated-temperature differential scanning calorimetry MDSC	395 ± 20
335.15 K, Small sample (50 mg) DSC	394 ± 20
338.15 K, modulated-temperature differential scanning calorimetry MDSC	397 ± 20
338.17 K, Large sample (1 g) DSC	387 ± 20
340.15 K, Small sample (50 mg) DSC	395 ± 21
343.15 K, modulated-temperature differential scanning calorimetry MDSC	398 ± 20
343.17 K, Large sample (1 g) DSC	391 ± 20
345.15 K, Small sample (50 mg) DSC	396 ± 21
348.13 K, Large sample (1 g) DSC	392 ± 20
348.15 K, modulated-temperature differential scanning calorimetry MDSC	400 ± 20
350.15 K, Small sample (50 mg) DSC	397 ± 21
353.15 K, modulated-temperature differential scanning calorimetry MDSC	402 ± 20
353.16 K, Large sample (1 g) DSC	393 ± 20
355.15 K, Small sample (50 mg) DSC	399 ± 21
358.12 K, Large sample (1 g) DSC	395 ± 21
358.15 K, modulated-temperature differential scanning calorimetry MDSC	404 ± 20
360.15 K, Small sample (50 mg) DSC	401 ± 21
363.14 K, Large sample (1 g) DSC	398 ± 21
363.15 K, modulated-temperature differential scanning calorimetry MDSC	405 ± 20
365.15 K, Small sample (50 mg) DSC	403 ± 21
368.14 K, Large sample (1 g) DSC	400 ± 21
368.15 K, modulated-temperature differential scanning calorimetry MDSC	408 ± 20
370.15 K, Small sample (50 mg) DSC	405 ± 21
373.14 K, Large sample (1 g) DSC	401 ± 21
373.15 K, modulated-temperature differential scanning calorimetry MDSC	409 ± 20
375.15 K, Small sample (50 mg) DSC	406 ± 21
378.13 K, Large sample (1 g) DSC	402 ± 21
378.15 K, modulated-temperature differential scanning calorimetry MDSC	411 ± 21
380.15 K, Small sample (50 mg) DSC	409 ± 21
383.15 K, modulated-temperature differential scanning calorimetry MDSC	412 ± 21
383.17 K, Large sample (1 g) DSC	405 ± 21
385.15 K, Small sample (50 mg) DSC	410 ± 21
388.15 K, Large sample (1 g) DSC	407 ± 21
388.15 K, modulated-temperature differential scanning calorimetry MDSC	414 ± 21
390.15 K, Small sample (50 mg) DSC	412 ± 21
393.14 K, Large sample (1 g) DSC	410 ± 21
393.15 K, modulated-temperature differential scanning calorimetry MDSC	416 ± 21
395.15 K, Small sample (50 mg) DSC	414 ± 22
398.15 K, modulated-temperature differential scanning calorimetry MDSC	416 ± 21
398.17 K, Large sample (1 g) DSC	411 ± 21
400.15 K, Small sample (50 mg) DSC	416 ± 22
403.15 K, Large sample (1 g) DSC	414 ± 22
403.15 K, modulated-temperature differential scanning calorimetry MDSC	418 ± 21
405.15 K, Small sample (50 mg) DSC	418 ± 22
408.12 K, Large sample (1 g) DSC	416 ± 22
408.15 K, modulated-temperature differential scanning calorimetry MDSC	419 ± 21
410.15 K, Small sample (50 mg) DSC	420 ± 22
413.15 K, Large sample (1 g) DSC	419 ± 22
413.15 K, modulated-temperature differential scanning calorimetry MDSC	421 ± 21
415.15 K, Small sample (50 mg) DSC	422 ± 22
418.17 K, Large sample (1 g) DSC	421 ± 22
420.15 K, Small sample (50 mg) DSC	424 ± 22
423.14 K, Large sample (1 g) DSC	422 ± 22
425.15 K, Small sample (50 mg) DSC	425 ± 22
